Assay results as given in US20240268380A1, “USE OF ESSENTIAL OILS AS BIOSTIMULANTS FOR MYCELIA AND MUSHROOMS” (MYCELIANCE, priority 2021, published 2024).

System: Agaricus bisporus mycelium
Assay: Stimulation of the growth of Agaricus bisporus mycelium on PDA culture medium
Type: cell-based
Settings: for effect on the growth of the Agaricus bisporus mycelium: purified terpene at 40 μL/L, TripleX make (Amycel)
Protocol: • Mixing, in a sterile container, the essential oil or oils or the terpene or terpenes selected according to the invention, with the surfactant or surfactants, in equal portions: […], therefore preparing 200 μl in total.
• Preparing 2 times 1 litre of PDA in accordance with the instructions of the supplier, in separate containers. • Sterilising the two solutions at the same time, 15 minutes at 121° C. in an autoclave.
• Waiting until the two solutions drop in temperature, to reach approximately 40° C. • Homogenising and then pouring the composition of biostimulants, into one of the two containers. • Pouring the same volume of the surfactant or surfactants used, into the second container. • Placing under stirring, and then pouring the 2 litres of solutions into annotated petri dishes. • Placing the petri dishes in an incubator at 23° C.±1° C. and 80% humidity.
• Inoculating all the petri dishes with the mushroom strain selected. • Re-placing the petri dishes in an incubator at 23° C.±1° C. and 80% humidity.
• After 7 days, tracing the contour of the mycelium under the petri dishes, with a fine marker. • Once again tracing the contour of the mycelium after 14 and 21 days following the inoculation. • Measuring its growth to within 0.5 mm, on 4 axes separated by 90°, for each petri dish. • Calculating the mean growths measured, then determining the percentage inhibition or biostimulation compared with the reference, which contains only the surfactant or surfactants, without the essential oil or oils or the terpene and terpenes use.
The manipulations for each essential oil tested were reproduced 40 times, using the Agaricus bisporus mycelium of Heirloom make, supplied by the American company Amycel.
The tests were performed on three strains of Agaricus bisporus (of Heirloom and TripleX makes from the company Amycel and Tuscan from the company Sylvan) with the purified terpene ([…]. […]

Row | Compound | effect on the growth of the Agaricus bisporus mycelium | effect on the growth of the mycelia of three strains of Agaricus bisporus (purified terpene, Heirloom and TripleX makes at 40 or 80 μL/L, Tuscan make at 80 or 100 μL/L, effect reinforced by increasing the concentration)
1 | CC1=CCC2CC1C2(C)C (stereo not drawn) [α-pinene, reference compound] | inhibiting effect | 
2 | C=C1CCC2CC1C2(C)C (stereo not drawn) [β-pinene] | biostimulant effect | very marked effect of biostimulation
